Assays:
[1] = biological target: StOASS (O-acetylserine sulfhydrylase) (Salmonella typhimurium, UniProt P0A1E3); assay: PLP fluorescence titration of ligands with StOASS; assay type: binding; parameters: His tag (N); made in house; host or cells: E. coli BL21(DE3), pET28a(+); conditions: similar experimental conditions as cysteine/methionine titrations
Method: Titrations of ligands with StOASS were examined by monitoring changes in the active site pyridoxal 5'phosphate (PLP) fluorescence of OASS using a Varian spectrofluorometer. The excitation and emission wavelengths for monitoring PLP signal change upon ligand binding were 412 nm and 507 nm respectively. All experiments were done at 23.0 ± 1°C. Slit widths were set to 5 nm for all experiments and PMT voltage was adjusted to get maximum signal for a given protein concentration. Initial readings of both the sample, Fsamp,0 and buffer, Fbuf,0 were taken, with F0 = Fsamp,0-Fbuf,0 defined as the initial fluorescence of the sample. The sample cuvette was then titrated with aliquots of ligands and mixed, equilibrated for 2-5 minutes before measurement. Data points from five such measurements were averaged to obtain Fave,i. The relative fluorescence quenching upon ligand binding is defined as Qobs,i = (F0-Fobs,i)/F0. All measurements were corrected for dilution, and inner filter effects.
Binding of ligands to OASS was analyzed to obtain the equilibrium binding constant, Kobs = [PL]/[P]*[L], using a single or two independent site binding models (eqn 1)(1) [drawing 1]
Where n, number of binding sites, Qobs, observed fluorescence quenching and Qmax, the maximum fluorescence quenching at saturation.

[2] = substrate: CC(=O)OC[C@H](N)C(=O)O; assay: Steady state kinetic measurement of StOASS activity (ninhydrin-cysteine assay); assay type: biochemical, Salmonella typhimurium; conditions: other: 0.1M Hepes, pH 7.5, 30 °C, 2 mM Na2S, OAS 1-10 mM
Method: Steady state kinetic measurement of StOASS activity in the reaction buffer (as in Fig S2).
OASS activity was measured by monitoring the cysteine formation. Data were fitted to Michaelis-Menten equation using origin 5.0. The Km(OAS) was estimated to be 0.89 […]
Enzyme assay: Assay is based on the specific reaction of ninhydrin with cysteine under strong acidic conditions and monitoring of modified cysteine (ninhydrin-cysteine adduct) at 560 nm. The reaction was allowed to proceed for 20 minutes (30 °C, linear phase) with varied concentrations of OAS (1- 10 mM, 2 mM Na2S) in the reaction buffer (0.1M Hepes, pH 7.5, 150 µl reaction volume). The reaction was terminated with 5% TFA and centrifuged at 11000 rpm for 2 min. 125 µl glacial acetic acid + 125 µl acidic ninhydrin reagent were added to 125 µl of supernatant. Samples were boiled for 10 min at 100°C and cooled to room temperature. 600 µl of chilled absolute ethanol was added to the mix and the absorbance at 560 nm was used for determining the amount of cysteine present in the sample. Cysteine liberated was determined from a standard curve plotted by using known concentrations of cysteine.

## CC[C@H](C)[C@H](N)C(=O)O [isoleucine, L-isoleucine]
[1]
  binding to OASS when presented as amino acid: does not bind OASS

B1: StOASS (Salmonella enterica subsp. enterica serovar Typhimurium str. LT2) (protein)
chain: MSKIYEDNSLTIGHTPLVRLNRIGNGRILAKVESRNPSFSVKCRIGANMIWDAEKRGVLKPGVELVEPTSGNTGIALAYVAAARGYKLTLTMPETMSIERRKLLKALGANLVLTEGAKGMKGAIQKAEEIVASDPQKYLLLQQFSNPANPEIHEKTTGPEIWEDTDGQVDVFISGVGTGGTLTGVTRYIKGTKGKTDLITVAVEPTDSPVIAQALAGEEIKPGPHKIQGIGAGFIPGNLDLKLIDKVVGITNEEAISTARRLMEEEGILAGISSGAAVAAALKLQEDESFTNKNIVVILPSSGERYLSTALFADLFTEKELQQ
notes: His tag (N); made in house; host or cells: E. coli BL21(DE3), pET28a(+)
[2]
  Km: 890 µM
